Literature values as cited in patent publication US7829688B2, “Peptides of CaV2.2 that inhibit pain” (The Board of Regents of the University of Texas System, priority 2004, dated 2010).

Molecular target: T1, N-type Ca2+ channels (Rattus norvegicus, UniProt Q02294, C1579L/DEL1236-1239/DEL415-415/E177G/INS1558ET)
T1 construct: host or cells: rat, in vivo (Malmberg and Yaksh, 1994, 1995)
Details: in vivo; cited from earlier work

T1 sequence (Q02294 whole entry, looked up, stated change not applied): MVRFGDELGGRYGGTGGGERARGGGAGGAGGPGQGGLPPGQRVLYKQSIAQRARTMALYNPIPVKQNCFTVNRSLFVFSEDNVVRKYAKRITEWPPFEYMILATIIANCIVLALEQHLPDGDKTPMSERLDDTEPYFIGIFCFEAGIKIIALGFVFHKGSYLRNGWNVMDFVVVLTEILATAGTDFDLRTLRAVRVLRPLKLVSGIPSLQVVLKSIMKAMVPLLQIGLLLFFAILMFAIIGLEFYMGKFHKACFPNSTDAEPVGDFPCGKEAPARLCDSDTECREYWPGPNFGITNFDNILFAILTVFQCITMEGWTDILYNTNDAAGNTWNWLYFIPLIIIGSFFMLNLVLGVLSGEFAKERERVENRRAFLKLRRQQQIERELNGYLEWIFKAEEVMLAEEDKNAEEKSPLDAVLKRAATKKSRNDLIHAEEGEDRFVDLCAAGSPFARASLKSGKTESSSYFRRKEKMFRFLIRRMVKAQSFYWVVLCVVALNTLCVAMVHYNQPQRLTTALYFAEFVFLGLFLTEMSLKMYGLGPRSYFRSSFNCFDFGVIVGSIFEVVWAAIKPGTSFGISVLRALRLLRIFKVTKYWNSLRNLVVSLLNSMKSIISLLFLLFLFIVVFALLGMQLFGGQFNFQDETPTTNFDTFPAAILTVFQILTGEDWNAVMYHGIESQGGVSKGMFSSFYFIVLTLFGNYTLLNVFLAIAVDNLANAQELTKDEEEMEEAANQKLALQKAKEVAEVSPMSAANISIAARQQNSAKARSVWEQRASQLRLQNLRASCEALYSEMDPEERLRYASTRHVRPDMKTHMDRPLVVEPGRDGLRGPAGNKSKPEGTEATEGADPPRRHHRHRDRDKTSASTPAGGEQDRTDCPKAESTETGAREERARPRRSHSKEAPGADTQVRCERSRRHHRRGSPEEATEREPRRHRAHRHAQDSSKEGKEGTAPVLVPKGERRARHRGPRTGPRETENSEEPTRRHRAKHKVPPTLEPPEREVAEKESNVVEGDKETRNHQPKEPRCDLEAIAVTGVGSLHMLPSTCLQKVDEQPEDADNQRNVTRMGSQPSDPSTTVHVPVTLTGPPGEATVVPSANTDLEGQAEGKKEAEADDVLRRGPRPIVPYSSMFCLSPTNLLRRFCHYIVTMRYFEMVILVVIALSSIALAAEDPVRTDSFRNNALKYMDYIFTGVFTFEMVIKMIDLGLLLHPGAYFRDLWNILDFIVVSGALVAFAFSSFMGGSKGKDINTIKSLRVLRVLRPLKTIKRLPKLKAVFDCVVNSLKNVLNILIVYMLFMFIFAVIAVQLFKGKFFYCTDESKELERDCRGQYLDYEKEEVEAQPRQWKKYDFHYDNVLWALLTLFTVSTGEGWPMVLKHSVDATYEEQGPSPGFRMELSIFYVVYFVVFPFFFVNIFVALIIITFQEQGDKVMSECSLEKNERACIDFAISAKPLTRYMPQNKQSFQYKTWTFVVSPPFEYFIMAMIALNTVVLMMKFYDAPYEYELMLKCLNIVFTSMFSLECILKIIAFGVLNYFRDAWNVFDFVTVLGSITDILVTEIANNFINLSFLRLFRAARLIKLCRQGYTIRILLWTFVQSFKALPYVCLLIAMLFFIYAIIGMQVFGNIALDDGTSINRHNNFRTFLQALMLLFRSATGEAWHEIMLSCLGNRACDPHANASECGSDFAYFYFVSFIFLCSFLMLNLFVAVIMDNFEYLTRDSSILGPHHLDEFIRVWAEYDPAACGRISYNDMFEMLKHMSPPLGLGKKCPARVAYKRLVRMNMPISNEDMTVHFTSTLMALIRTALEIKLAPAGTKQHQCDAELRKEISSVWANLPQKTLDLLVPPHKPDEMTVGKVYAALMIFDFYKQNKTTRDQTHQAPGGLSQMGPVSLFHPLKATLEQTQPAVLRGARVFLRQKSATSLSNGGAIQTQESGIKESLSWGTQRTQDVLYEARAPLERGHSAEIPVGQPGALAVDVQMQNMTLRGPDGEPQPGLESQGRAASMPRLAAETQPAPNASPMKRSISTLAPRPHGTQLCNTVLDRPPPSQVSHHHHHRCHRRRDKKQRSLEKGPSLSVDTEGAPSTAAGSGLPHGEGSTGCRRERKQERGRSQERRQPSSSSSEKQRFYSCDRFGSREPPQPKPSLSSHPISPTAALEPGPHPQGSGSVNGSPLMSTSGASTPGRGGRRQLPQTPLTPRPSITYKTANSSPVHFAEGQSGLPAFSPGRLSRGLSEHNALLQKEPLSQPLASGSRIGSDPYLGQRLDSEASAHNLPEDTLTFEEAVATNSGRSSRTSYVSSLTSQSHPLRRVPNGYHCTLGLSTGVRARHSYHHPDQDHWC

## CSCC[C@@H]1NC(=O)[C@H](CC(C)C)NC(=O)[C@H](CCCNC(=N)N)NC(=O)[C@H](CO)NC(=O)[C@@H]2CSSC[C@@H]3NC(=O)[C@H](CO)NC(=O)CNC(=O)[C@H]([C@@H](C)O)NC(=O)[C@H](CSSC[C@H](N)C(=O)N[C@@H](CCCCN)C(=O)NCC(=O)N[C@@H](CCCCN)C(=O)NCC(=O)N[C@@H](C)C(=O)N[C@@H](CCCCN)C(=O)N2)NC(=O)[C@H](CSSC[C@@H](C(N)=O)NC(=O)[C@H](CCCCN)NC(=O)CNC(=O)[C@H](CO)NC(=O)[C@H](CCCNC(=N)N)NC3=O)NC(=O)[C@H](CC(=O)O)NC(=O)[C@H](Cc2ccc(O)cc2)NC1=O [SNX-111]
  phase II formalin response: inhibited
